The results in this text go back to patent publication US9365522B2, “Pyrazole amide derivative” (AMGEN INC., priority 2015, dated 2016).

Each structure is given as a SMILES string.

The assay concerns the target T1, human RORγ-LBD (Homo sapiens, UniProt P51449).
T1 construct: made in house; host or cells: E. coli (BL-21)
T1 sequence (P51449 262-518): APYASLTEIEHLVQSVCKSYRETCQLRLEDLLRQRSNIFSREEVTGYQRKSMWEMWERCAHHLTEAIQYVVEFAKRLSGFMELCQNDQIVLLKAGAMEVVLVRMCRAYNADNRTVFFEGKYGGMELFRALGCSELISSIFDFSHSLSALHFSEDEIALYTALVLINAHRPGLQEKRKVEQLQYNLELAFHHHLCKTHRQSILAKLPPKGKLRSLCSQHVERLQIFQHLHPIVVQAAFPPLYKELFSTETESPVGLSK
In words: ROR gamma coactivator peptide recruitment Alphascreen assay (RORγ-LBD binding to GRIP1 coactivator peptide). The format is biochemical. The settings on record: 5 nM human RORγ-LBD, 30 nM 7-β-hydroxycholesterol, 50 nM biotinylated GRIP1 coactivator peptide, overnight incubation at room temperature; read-out: result (pIC50, RORγ coactivator peptide recruitment Alphascreen assay) (converted). The essentials: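 His/Flag-tagged human RORγ-LBD (aa 262-518, E. coli-expressed, 5 nM) with agonist 7-β-hydroxycholesterol (30 nM) and biotinylated GRIP1 LXXLL peptide (50 nM) in HEPES pH 7.4 buffer, 2.5% DMSO. Compound 1-in-2 dilutions; Alphascreen bead signal read after overnight incubation at room temperature; pIC50 calculated.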
For orientation: Alpha assays give light when donor and acceptor beads are brought close together.
On to `Cc1cc(Cl)c(C(=O)CN(Cc2cc(F)cc(F)c2)C(=O)c2cnn([C@H]3CC[C@@H](C(=O)O)CC3)c2C(F)(F)F)c(Cl)n1` [Example 761, cis-4-(4-((2-(2,4-dichloro-6-methyl-3-pyridinyl)-2-oxoethyl)(3,5-difluorobenzyl)carbamoyl)-5-(trifluoromethyl)-1H-pyrazol-1-yl)cyclohexanecarboxylic acid], for which the IC50 is 7.94 nM.

As for `Cc1cc(Cl)c(C(=O)CN(Cc2cc(F)cc(F)c2)C(=O)c2cnn([C@H]3CC[C@@](C)(C(=O)O)CC3)c2C(F)(F)F)c(Cl)n1` [Example 762, trans-4-(4-((2-(2,4-dichloro-6-methyl-3-pyridinyl)-2-oxoethyl)(3,5-difluorobenzyl)carbamoyl)-5-(trifluoromethyl)-1H-pyrazol-1-yl)-1-methylcyclohexanecarboxylic acid], the IC50 was 5.37 nM.

For the compound `CC1(C)[C@@H]2C[C@H](N(CC(=O)c3c(Cl)ccc(F)c3Cl)C(=O)c3cnn([C@H]4CC[C@](C)(C(=O)O)CC4)c3C(F)(F)F)C[C@@H]21` [Example 763, trans-4-(4-((2-(2,6-dichloro-3-fluorophenyl)-2-oxoethyl)((1R,3r,5S)-6,6-dimethylbicyclo[3.1.0]hex-3-yl)carbamoyl)-5-(trifluoromethyl)-1H-pyrazol-1-yl)-1-methylcyclohexanecarboxylic acid], the IC50 is 1.62 nM.

For `CC(C)(C)CN(CC(=O)c1c(Cl)ccc(F)c1Cl)C(=O)c1cnn([C@H]2CC[C@](C)(C(=O)O)CC2)c1C(F)(F)F` [Example 764, trans-4-(4-((2-(2,6-dichloro-3-fluorophenyl)-2-oxoethyl)(2,2-dimethylpropyl)carbamoyl)-5-(trifluoromethyl)-1H-pyrazol-1-yl)-1-methylcyclohexanecarboxylic acid], the IC50 is 4.37 nM.

In the case of `CC(C)CCN(CC(=O)c1c(Cl)cncc1Cl)C(=O)c1cnn([C@H]2C[C@@H]3[C@H](C2)[C@@H]3C(=O)O)c1C(F)(F)F` [Example 765, (1R,3r,5S,6r)-3-(4-((2-(3,5-dichloro-4-pyridinyl)-2-oxoethyl)(3-methylbutyl)carbamoyl)-5-(trifluoromethyl)-1H-pyrazol-1-yl)bicyclo[3.1.0]hexane-6-carboxylic acid], the IC50 is 245 nM.

On to `C[C@@H]1C[C@@H](n2ncc(C(=O)N(CCC(F)(F)F)CC(=O)c3c(Cl)cncc3Cl)c2C(F)(F)F)CC[C@@H]1C(=O)O` [Example 766, (1S,2R,4S)-4-(4-((2-(3,5-dichloro-4-pyridinyl)-2-oxoethyl)(3,3,3-trifluoropropyl)carbamoyl)-5-(trifluoromethyl)-1H-pyrazol-1-yl)-2-methylcyclohexanecarboxylic acid], for which the IC50 is 32.4 nM.

Regarding `C[C@H]1C[C@H](n2ncc(C(=O)N(CCC(F)(F)F)CC(=O)c3c(Cl)cncc3Cl)c2C(F)(F)F)CC[C@H]1C(=O)O` [Example 767, (1R,2S,4R)-4-(4-((2-(3,5-dichloro-4-pyridinyl)-2-oxoethyl)(3,3,3-trifluoropropyl)carbamoyl)-5-(trifluoromethyl)-1H-pyrazol-1-yl)-2-methylcyclohexanecarboxylic acid], the IC50 was 372 nM.

Consider `Cc1ncc(Cl)c(C(=O)CN(Cc2cc(F)cc(F)c2)C(=O)c2cnn([C@H]3CC[C@](C)(C(=O)O)CC3)c2C(F)(F)F)c1Cl` [Example 768, trans-4-(4-((2-(3,5-dichloro-2-methyl-4-pyridinyl)-2-oxoethyl)(3,5-difluorobenzyl)carbamoyl)-5-(trifluoromethyl)-1H-pyrazol-1-yl)-1-methylcyclohexanecarboxylic acid], for which the IC50 was 3.98 nM.

Turning to `O=C(CN(CC1(F)CCCC1)C(=O)c1cnn([C@H]2C[C@@H]3[C@H](C2)[C@@H]3C(=O)O)c1C(F)(F)F)c1c(Cl)cccc1Cl` [Example 769, (1R,3r,5S,6s)-3-(4-((2-(2,6-dichlorophenyl)-2-oxoethyl)((1-fluorocyclopentyl)methyl)carbamoyl)-5-(trifluoromethyl)-1H-pyrazol-1-yl)bicyclo[3.1.0]hexane-6-carboxylic acid], the IC50 is 18.6 nM.

Turning to `CC(C)(C)CN(CC(=O)c1c(Cl)cncc1Cl)C(=O)c1cnn([C@H]2C[C@@H]3[C@H](C2)[C@@H]3C(=O)O)c1C(F)(F)F` [Example 770, (1R,3r,5S,6s)-3-(4-((2-(3,5-dichloro-4-pyridinyl)-2-oxoethyl)(2,2-dimethylpropyl)carbamoyl)-5-(trifluoromethyl)-1H-pyrazol-1-yl)bicyclo[3.1.0]hexane-6-carboxylic acid], the IC50 was 42.7 nM.

With `CC(C)(C)CN(CC(=O)c1c(Cl)cncc1Cl)C(=O)c1cnn([C@H]2C[C@]3(C[C@H](C(=O)O)C3)C2)c1C(F)(F)F` (stereo partly drawn) [Example 771, (4r)-6-(4-((2-(3,5-dichloro-4-pyridinyl)-2-oxoethyl)(2,2-dimethylpropyl)carbamoyl)-5-(trifluoromethyl)-1H-pyrazol-1-yl)spiro[3.3]heptane-2-carboxylic acid], the IC50 was 6.31 nM.

As for `C[C@H](C(=O)O)[C@H]1C[C@H](n2ncc(C(=O)N(CC(=O)c3c(Cl)cccc3Cl)[C@H]3C[C@@H]4[C@H](C3)C4(C)C)c2C(F)(F)F)C1` [Example 772, (S)-2-((1R,3S)-3-(4-((2-(2,6-dichlorophenyl)-2-oxoethyl)((1R,3r,5S)-6,6-dimethylbicyclo[3.1.0]hexan-3-yl)carbamoyl)-5-(trifluoromethyl)-1H-pyrazol-1-yl)cyclobutyl)propanoic acid], the IC50 was 3.72 nM.

Consider `C[C@@H]1C[C@@H](n2ncc(C(=O)N(CC(=O)c3c(Cl)cncc3Cl)C[C@@H]3CCC(C)(C)O3)c2C(F)(F)F)CC[C@@H]1C(=O)O` [Example 774, (1S,2R,4S)-4-(4-((2-(3,5-dichloro-4-pyridinyl)-2-oxoethyl)(((2S)-5,5-dimethyltetrahydro-2-furanyl)methyl)carbamoyl)-5-(trifluoromethyl)-1H-pyrazol-1-yl)-2-methylcyclohexanecarboxylic acid], for which the IC50 is 21.9 nM.

On to `CC1(CN(CC(=O)c2c(Cl)cncc2Cl)C(=O)c2cnn([C@H]3CC[C@H](CC(=O)O)CC3)c2C(F)(F)F)CCC1` [Example 775, (trans-4-(4-((2-(3,5-dichloro-4-pyridinyl)-2-oxoethyl)((1-methylcyclobutyl)methyl)carbamoyl)-5-(trifluoromethyl)-1H-pyrazol-1-yl)cyclohexyl)acetic acid], for which the IC50 is 3.02 nM.

As for `C[C@]1(C(=O)O)CC[C@H](n2ncc(C(=O)N(CCC3CC3)CC(=O)c3c(Cl)cncc3Cl)c2C(F)(F)F)CC1` [Example 776, trans-4-(4-((2-cyclopropylethyl)(2-(3,5-dichloro-4-pyridinyl)-2-oxoethyl)carbamoyl)-5-(trifluoromethyl)-1H-pyrazol-1-yl)-1-methylcyclohexanecarboxylic acid], the IC50 is 21.9 nM.

Turning to `Cc1cc(Cl)c(C(=O)CN(CCC2CC2)C(=O)c2cnn([C@H]3CC[C@](C)(C(=O)O)CC3)c2C(F)(F)F)c(Cl)c1` [Example 777, trans-4-(4-((2-cyclopropylethyl)(2-(2,6-dichloro-4-methylphenyl)-2-oxoethyl)carbamoyl)-5-(trifluoromethyl)-1H-pyrazol-1-yl)-1-methylcyclohexanecarboxylic acid], the IC50 is 4.27 nM.

`Cc1cc(F)c(C(=O)CN(CC2(C)CCC2)C(=O)c2cnn([C@H]3CC[C@](C)(C(=O)O)CC3)c2C(F)(F)F)c(Cl)c1` [Example 778, trans-4-(4-((2-(2-chloro-6-fluoro-4-methylphenyl)-2-oxoethyl)((1-methylcyclobutyl)methyl)carbamoyl)-5-(trifluoromethyl)-1H-pyrazol-1-yl)-1-methylcyclohexanecarboxylic acid]: the IC50 is 4.47 nM.

In the case of `Cc1cc(Cl)c(C(=O)CN(CCOC(C)(C)C)C(=O)c2cnn([C@H]3CC[C@](C)(C(=O)O)CC3)c2C(F)(F)F)c(Cl)n1` [Example 779, trans-4-(4-((2-(2,4-dichloro-6-methyl-3-pyridinyl)-2-oxoethyl)(2-((2-methyl-2-propanyl)oxy)ethyl)carbamoyl)-5-(trifluoromethyl)-1H-pyrazol-1-yl)-1-methylcyclohexanecarboxylic acid], the IC50 was 18.2 nM.

As for `C[C@H](C(=O)O)[C@H]1CC[C@H](n2ncc(C(=O)N(CC(=O)c3c(Cl)cncc3Cl)Cc3cc(F)cc(F)c3)c2C(F)(F)F)CC1` [Example 780, 2-(trans-4-(4-((2-(3,5-dichloro-4-pyridinyl)-2-oxoethyl)(3,5-difluorobenzyl)carbamoyl)-5-(trifluoromethyl)-1H-pyrazol-1-yl)cyclohexyl)propanoic acid], the IC50 was 7.59 nM.

With `C[C@@H]1C[C@@H](n2ncc(C(=O)N(CC(=O)c3c(Cl)cccc3Cl)CC3(C)CCC3)c2C(F)(F)F)CC[C@@H]1C(=O)O` [Example 781, (1S,2R,4S)-4-(4-((2-(2,6-dichlorophenyl)-2-oxoethyl)((1-methylcyclobutyl)methyl)carbamoyl)-5-(trifluoromethyl)-1H-pyrazol-1-yl)-2-methylcyclohexanecarboxylic acid], the IC50 was 1.55 nM.

Regarding `C[C@@H]1C[C@@H](n2ncc(C(=O)N(CC(=O)c3c(Cl)cncc3Cl)CC3(C)CCC3)c2C(F)(F)F)CC[C@@H]1C(=O)O` [Example 782, (1S,2R,4S)-4-(4-((2-(3,5-dichloro-4-pyridinyl)-2-oxoethyl)((1-methylcyclobutyl)methyl)carbamoyl)-5-(trifluoromethyl)-1H-pyrazol-1-yl)-2-methylcyclohexanecarboxylic acid], the IC50 is 3.98 nM.
